# Data: patent US20090143279A1 (priority 2007, published 2009)
# Read-outs that look alike come from different tables or passages of the source.
# How the values were obtained:
# [1] = test system: cellular dehydrogenase activity
# mtOXPHOS transcripts = type: cell-based, mouse
# [2] = test system: mitochondrial membrane potential; type: cell-based, mouse
# reactive oxygen species = type: cell-based, mouse
# nuOXPHOS transcripts = type: cell-based, mouse
# cytochrome c = type: cell-based, mouse
# OXPHOS gene expression = type: cell-based, mouse
# [3] = composite Z-score vs mock-treated (DMSO) wells, Conc 20 μM
# [4] = composite Z-score vs DMSO wells, Conc 20 μM
# [5] = composite Z-score vs DMSO, Conc 20 μM
# [6] = composite Z-score vs mock-treated (DMSO) wells, concentration of each compound in μM
# [7] = normalized score (composite Z-score vs DMSO mock-treated wells), compound concentration (μM)
# [8] = composite Z-score vs DMSO, Conc 4.42 μM
# [9] = Conc 20 μM, normalized score vs mock-treated (DMSO) wells
# [10] = Table 4, C2C12 myotubes, 48 h, composite Z-score
# cytochrome c, sequence (P62897 whole entry): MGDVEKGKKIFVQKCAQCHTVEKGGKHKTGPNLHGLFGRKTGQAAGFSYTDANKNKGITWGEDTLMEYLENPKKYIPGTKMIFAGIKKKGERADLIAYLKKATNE
molecule,measurement,setting,value
CC(=O)O[C@H]1C[C@@H](OC(C)=O)C(C)(C)C2C[C@@H](O)[C@]3(C)C(CC[C@@]4(C)[C@H](c5ccoc5)OC(=O)[C@H]5O[C@]543)[C@]21C (stereo partly drawn) [7-deacetylkhivorin],MTT,[1]; [3],0.608
same,mitoOX,mtOXPHOS transcripts; [3],0.188
same,ΔΨm,[2]; [3],−0.049
same,ROS,reactive oxygen species; [3],−0.618
same,Viability,C2C12 myotubes; [3],0.893
same,nucOX,nuOXPHOS transcripts; [3],0.543
same,cyt c,cytochrome c; [3],0.079
same,GE-HTS,OXPHOS gene expression; [3],0.477
CCCCNc1ccc(C(=O)OCCN(C)C)cc1 [tetracaine],MTT,[1]; [4],−0.048
same,mitoOX,mtOXPHOS transcripts; [4],−0.034
same,ΔΨm,[2]; [4],−0.492
same,ROS,reactive oxygen species; [4],0.320
same,Viability,C2C12 myotubes; [4],−0.539
same,nucOX,nuOXPHOS transcripts; [4],−0.376
same,cyt c,cytochrome c,−0.536
same,cyt c,cytochrome c; [4],0.383
same,GE-HTS,OXPHOS gene expression; [4],−0.280
C[C@@H]1O[C@@H](O[C@H]2C[C@@H](O)[C@]3(CO)[C@H]4[C@H](O)C[C@]5(C)[C@@H](C6=CC(=O)OC6)CC[C@]5(O)[C@@H]4CC[C@]3(O)C2)[C@H](O)[C@H](O)[C@H]1O [ouabain],MTT,[1]; [5],−2.101
same,mitoOX,mtOXPHOS transcripts; [5],−1.547
same,ΔΨm,[2]; [5],−1.093
same,ROS,reactive oxygen species; [5],0.466
same,Viability,C2C12 myotubes; [5],−0.631
same,nucOX,nuOXPHOS transcripts; [5],−0.986
same,cyt c,cytochrome c; [5],0.262
same,GE-HTS,OXPHOS gene expression; [5],−1.278
CC(=O)O[C@H]1CC[C@@]2(C)C(=CC[C@H]3[C@@H]4CC[C@H]([C@H](C)CCCC(C)C)[C@@]4(C)CC[C@@H]32)C1 [cholesteryl acetate],MTT,[1]; [5],−2.138
same,mitoOX,mtOXPHOS transcripts; [5],0.142
same,ΔΨm,[2]; [5],−0.657
same,ROS,reactive oxygen species; [5],0.524
same,Viability,C2C12 myotubes; [5],−1.471
same,nucOX,nuOXPHOS transcripts; [5],0.273
same,cyt c,cytochrome c; [5],0.097
same,GE-HTS,OXPHOS gene expression; [5],0.228
CC(COc1ccccc1)NC(C)C(O)c1ccc(O)cc1 (stereo not drawn) [isoxsuprine],MTT,[1]; [5],−1.776
same,mitoOX,mtOXPHOS transcripts; [5],0.463
same,ΔΨm,[2]; [5],−1.246
same,ROS,reactive oxygen species; [5],1.375
same,Viability,C2C12 myotubes; [5],−0.141
same,nucOX,nuOXPHOS transcripts; [5],−0.267
same,cyt c,cytochrome c; [5],0.295
same,cyt c,cytochrome c; [6],−0.148
same,GE-HTS,OXPHOS gene expression; [5],−0.050
NS(=O)(=O)c1cc2c(cc1Cl)N=CNS2(=O)=O [chlorothiazide],MTT,[1]; [4],−0.711
same,mitoOX,mtOXPHOS transcripts; [4],0.221
same,ΔΨm,[2]; [4],−0.831
same,ROS,reactive oxygen species; [4],1.202
same,Viability,C2C12 myotubes; [4],0.116
same,nucOX,nuOXPHOS transcripts; [4],−0.608
same,cyt c,cytochrome c,0.431
same,cyt c,cytochrome c; [4],0.566
same,GE-HTS,OXPHOS gene expression; [4],−0.331
CC(=O)O[C@H]1CC[C@]2(C)[C@H]3CC[C@@]4(C)[C@H](c5ccoc5)OC(=O)[C@H]5O[C@]54[C@]3(C)[C@H](OC(C)=O)C[C@H]2C1(C)C [3beta-acetoxydeoxodihydrogedunin],MTT,[1]; [3],−0.528
same,mitoOX,mtOXPHOS transcripts; [3],−0.694
same,ΔΨm,[2]; [3],0.254
same,ROS,reactive oxygen species; [3],0.055
same,Viability,C2C12 myotubes; [3],0.311
same,nucOX,nuOXPHOS transcripts; [3],−1.055
same,cyt c,cytochrome c; [3],0.759
same,GE-HTS,OXPHOS gene expression; [3],−1.016
NCCCC(=O)O [gamma-aminobutyric acid],MTT,[1]; [4],−0.777
same,mitoOX,mtOXPHOS transcripts; [4],−0.693
same,ΔΨm,[2]; [4],0.550
same,ROS,reactive oxygen species; [4],0.209
same,Viability,C2C12 myotubes; [4],1.043
same,nucOX,nuOXPHOS transcripts; [4],0.212
same,cyt c,cytochrome c; [4],−0.038
same,GE-HTS,OXPHOS gene expression; [4],−0.119
OCC(O)COc1ccc(Cl)cc1 (stereo not drawn) [chlorphensin],MTT,[1]; [7],−0.356
same,mitoOX,mtOXPHOS transcripts; [7],−0.766
same,ΔΨm,[2]; [7],−0.419
same,ROS,reactive oxygen species; [7],0.692
same,Viability,C2C12 myotubes; [7],−1.132
same,nucOX,nuOXPHOS transcripts; [7],−0.613
same,cyt c,cytochrome c; [7],−0.522
same,GE-HTS,OXPHOS gene expression; [7],−0.696
Cc1c(N)c(=O)n(-c2ccccc2)n1C [4-aminoantipyrine],MTT,[1]; [8],−1.470
same,mitoOX,mtOXPHOS transcripts; [8],−0.450
same,ΔΨm,[2]; [8],−4.045
same,ROS,reactive oxygen species; [8],0.564
same,Viability,C2C12 myotubes; [8],0.530
same,nucOX,nuOXPHOS transcripts; [8],−0.041
same,cyt c,cytochrome c; [8],0.087
same,GE-HTS,OXPHOS gene expression; [8],−0.182
isoduartin methyl ether [reference compound],MTT (composite Z-score),[1]; [9],−2.055
same,MTT,[1]; [10],−2.055
same,mitoOX (composite Z-score),mtOXPHOS transcripts; [9],−0.434
same,ΔΨm (composite Z-score),[2]; [9],−0.777
same,ΔΨm,"[2]; Table 4, C2C12 myotubes, 48 h, JC-1, composite Z-score",−0.777
same,ROS (composite Z-score),reactive oxygen species; [9],0.599
same,ROS,reactive oxygen species; [10],0.599
same,Viability (composite Z-score),C2C12 myotubes; [9],−0.603
same,Viability,C2C12 myotubes; [10],−0.603
same,nucOX (composite Z-score),nuOXPHOS transcripts; [9],−0.008
same,cyt c (composite Z-score),cytochrome c; [9],0.882
same,GE-HTS (composite Z-score),OXPHOS gene expression; [9],−0.182
CCOC(=O)c1oc2c(OC)c(O)cc(O)c2c(=O)c1-c1cc(OC)c(OC)c(OC)c1,MTT,[1]; [3],−0.761
same,mitoOX,mtOXPHOS transcripts; [3],−1.218
same,ΔΨm,[2]; [3],−0.397
same,ROS,reactive oxygen species; [3],0.244
same,Viability,C2C12 myotubes; [3],−1.124
same,nucOX,nuOXPHOS transcripts; [3],−1.229
same,cyt c,cytochrome c; [3],−0.783
same,GE-HTS,OXPHOS gene expression; [3],−1.306
colistin,MTT,[1]; [6],−1.283
same,mitoOX,mtOXPHOS transcripts; [6],−0.939
same,ΔΨm,[2]; [6],−0.746
same,ROS,reactive oxygen species; [6],0.501
same,Viability,C2C12 myotubes; [6],0.940
same,nucOX,nuOXPHOS transcripts; [6],−0.016
same,cyt c,cytochrome c; [6],0.409
same,GE-HTS,OXPHOS gene expression; [6],−0.341
